In PubChem BioAssay AID1996:
≈ marks a conversion by molar mass, not a printed value.

Details: buffer; pH 7.4; 200.0 µM

SMILES | solubility kinetic [µg/mL]
O=C(NCc1c[nH]c2ccccc12)c1ccccc1 | > 37.5
Cc1ccc(C(=O)NC2=NCCS2)cc1Cl | 3.1 (≈ 12.2 µM)
NC(=O)NC(=O)COC(=O)c1ccc2noc(-c3ccccc3)c2c1 | 5.2 (≈ 15.3 µM)
O=C(NCc1ccccc1)c1cccnc1Sc1ccccc1 | 10.6 (≈ 33.1 µM)
CC(C)Sc1ccccc1C(=O)Nc1ccc2c(c1)n(C)c(=O)n2C | > 53.3
Cl.O=C(O)CSc1nc(-c2ccccc2)c(-c2ccccc2)[nH]1 | > 52
O=C(Nc1ccc(F)cc1)c1ccc2nsnc2c1 | 5.4 (≈ 19.8 µM)
Cc1cccc(NC(=O)CN2C(=O)NC3(CCCC3)C2=O)n1 | > 45.3
O=C1CCCN1C(=O)CSc1ccc2ccccc2n1 | 41.9 (≈ 146 µM)
COc1ccc(NC(=O)COc2ccc3c(c2)CCC3)cc1S(N)(=O)=O | 15.9 (≈ 42.2 µM)
CCOc1ccc(S(=O)(=O)/N=C(/Nc2ccc(C(C)=O)cc2)c2ccccc2)cc1 | 18.1 (≈ 42.8 µM)
CCCCn1c(CCNC(=O)c2ccco2)nc2ccccc21 | > 46.7
CCc1cnccc1CCC(=O)Nc1ccccc1C | 35.4 (≈ 132 µM)
COc1ccc(C(=O)N2CCC(c3ccccc3)CC2)c(OC)c1OC | 47.6 (≈ 134 µM)
Fc1cc(F)c(NC(=S)N2CCOCC2)c(F)c1 | > 41.4
C=CCn1cccc(C(=O)Nc2ccc(OC)c(Cl)c2)c1=O | 1.5 (≈ 4.71 µM)
N#Cc1cccnc1N1CCN(C(=O)c2cccs2)CC1 | > 44.8
Nc1cc(Cl)ccc1C(=O)OCC(=O)N1CCCC1 | 21.4 (≈ 75.7 µM)
NC(=S)/N=C/c1c(O)[nH]c(=O)[nH]c1=O | 15.6 (≈ 72.8 µM)
Cc1cc(C)nc(SCc2ccc(F)cc2)n1 | 10 (≈ 40.3 µM)
CCOC(=O)c1c(NC(=O)C2CC2)sc2c1CC(C)(C)OC2 | < 0.7
C[C@H](NCc1c[nH]c2ccccc12)c1ccccc1 | > 37.6

SMILES | solubility kinetic [µg/mL]
FC(F)(F)c1ccc(NC2=NCCC2)cc1 | > 34.2
O=S(=O)(c1ccc(-c2ccno2)s1)N1CCCCC1 | 8.1 (≈ 27.1 µM)
CC(=O)Nc1ccccc1OC(C)C(=O)N1CC(C)CC(C)C1 (stereo not drawn) | > 47.8
COc1cccc(OC)c1C1=NC(C)(C)CO1 | > 35.3
CCN(Cc1ccncc1)C(=S)Nc1ccc(Cl)cc1 | > 45.9
CC(=O)NC(Cc1ccccc1)Cc1ccccc1 | > 38
CCCNC(=O)c1c(O)c2cccc3c2n(c1=O)CCC3 | 0.5 (≈ 1.75 µM)
CN(C)C(CNc1ncccn1)c1ccccc1 (stereo not drawn) | 32.6 (≈ 135 µM)
COc1cc(NS(=O)(=O)c2cn(C)cn2)cc(OC)c1 | 8.9 (≈ 29.9 µM)
O=C(Cn1cc([N+](=O)[O-])ccc1=O)NC1CCCCC1 | > 41.9
COc1ccc(NC(=O)c2cc(-c3ccccc3Cl)on2)cc1 | < 0.4
O=C(CN1C(=O)C(=O)N(Cc2ccco2)C1=O)Nc1ccc(F)c(F)c1F | 52.4 (≈ 137 µM)
CC1=C(C)C(C)=C(C#N)C(=C(C#N)C#N)N1 | > 31.5
C/C(Cl)=C/Cc1c(C)[nH]c2c(ccc3ccccc32)c1=O | < 0.6
CCOP(=O)(c1ccc(N(C)C)cc1)C(O)c1ccc(C)cc1 (stereo not drawn) | 46 (≈ 138 µM)
Cc1c[n+](CC(=O)c2ccccc2)c(C)cn1.[Br-] | 27
COc1ccc(C(=O)COC(=O)c2ccc(Cl)nc2)cc1OC | 10.3 (≈ 30.7 µM)
CCOC(=O)C1=C(C)NC(=O)NC1c1c(OC)ccc2ccccc12 (stereo not drawn) | 0.7 (≈ 2.06 µM)
CN(CCOc1ccccc1)CC(O)COc1ccccc1 (stereo not drawn) | 28.5 (≈ 94.6 µM)
CCNc1nc(NC(C)(C)C)nc(SC)n1 | 35.9 (≈ 149 µM)
COc1ccc(S(=O)(=O)NCCc2ccncc2)cc1 | 40.7 (≈ 139 µM)
CCOc1ccc(C2C3=C(CCCC3=O)OC(N)=C2[N+](=O)[O-])cc1 (stereo not drawn) | > 49.6

SMILES | solubility kinetic [µg/mL]
O=c1c2ccccc2nc2ccccn12 | 28.7 (≈ 146 µM)
Br.COc1ccc(C(=O)CN2CCCCC2)cc1 | > 47.1
O=C(NCc1ccccc1F)c1ccncc1 | 29.5 (≈ 128 µM)
CCC1CN(C(=O)NCc2ccc(C)cc2)c2ccccc2O1 (stereo not drawn) | 20.8 (≈ 67 µM)
O=C1NC(=O)N(CCC2=CCCCC2)C(=O)/C1=C/c1cccs1 | 26.1 (≈ 79 µM)
Cc1ccc(OCC(=O)NCCNC(=O)c2cnccn2)cc1 | 40.9 (≈ 130 µM)
CCOC(=O)c1ccc(NC(=S)NCc2ccc(F)cc2)cc1 | 2.2 (≈ 6.62 µM)
CCOC(=O)c1nn(-c2ccc3c(c2)OCCO3)cc1O | > 43.5
Cc1ccnc2nc(C(=O)NCc3ccccc3)nn12 | > 40.1
O=C(Cc1cccc2ccccc12)Nc1cc(C(=O)O)cc(C(=O)O)c1 | > 52.4
NC(=O)C[n+]1cccc(/C=N/O)c1.[Cl-] | > 32.3
COc1ccc(CNC(=O)c2cc(=O)c3cc(C)c(C)cc3o2)cc1 | < 0.7
Cc1ccc(C(=O)NCC(=O)OCc2c(F)cccc2Cl)s1 | 9.2 (≈ 26.9 µM)
Cc1cccc(CC(=O)NCCN2CCCCC2)c1 | 32.5 (≈ 125 µM)
COc1ccc(/C=C/C(=O)NC2=NCCS2)cc1OC | 1.5 (≈ 5.13 µM)
CC(=O)N1CCCC1(C(=O)O)c1ccccc1 (stereo not drawn) | 33.8 (≈ 145 µM)
COc1cc(C(=O)N2C(=O)CCC2=O)cc(OC)c1OC | 35.4 (≈ 121 µM)
CN(CC(=O)NCC1COc2ccccc2O1)S(=O)(=O)c1ccc(Cl)cc1 (stereo not drawn) | 17.9 (≈ 43.6 µM)
O=C(NC1CCCCC1)C1CCC(=O)N(C2CC2)C1 (stereo not drawn) | > 39.7
Cc1ccc(OCCCC(=O)NC(C)c2ccccc2)c(C)c1 (stereo not drawn) | 22.6 (≈ 72.6 µM)
CCN(CC(=O)NCc1ccc(F)cc1)C(=O)C1CC1C (stereo not drawn) | > 43.9
COc1ccc(NC(=O)c2cc(=O)[nH]c3ccccc23)cc1 | 2.1 (≈ 7.14 µM)

SMILES | solubility kinetic [µg/mL]
COc1ccc(C(=O)O)cc1S(=O)(=O)N1CCSCC1 | > 47.6
CN(Cc1ccc(F)cc1)Cc1nc(-c2ccccc2)no1 | 4.4 (≈ 14.8 µM)
Cc1nnc(NC(=O)CS(=O)(=O)Cc2ccccc2)s1 | > 46.7
O=C(NC1CCCCC1)N1CCN(c2ccc(Cl)cc2)CC1 | 19.6 (≈ 60.9 µM)
O=S(=O)(c1ccc(Cl)cc1Cl)N1CCCC1c1cccnc1 (stereo not drawn) | > 53.6
O=C(c1ccccc1Cl)N1CCSCC1 | 31.7 (≈ 131 µM)
COc1cc(NC(=O)c2cc(C)no2)c(OC)cc1Cl | 1.8 (≈ 6.07 µM)
O=C(Nc1ccc(Cl)cc1)N1CCSC1=NCc1ccccc1 | 26 (≈ 75.2 µM)
CCOc1ccc(N2CC(C(=O)NC3CCSC3=O)CC2=O)cc1 (stereo not drawn) | 42.6 (≈ 122 µM)
COC(=O)C1=C(N)Oc2c(oc(CO)cc2=O)C1c1ccc(F)cc1 (stereo not drawn) | > 52.1
CSc1cccc(NS(=O)(=O)c2ccc(C(C)=O)cc2)c1 | 41.1 (≈ 128 µM)
Cc1onc(-c2c(F)cccc2Cl)c1C(=O)NCCO | > 44.8
COc1ccc(S(=O)(=O)N2CCOCC2)cc1NC(=O)CCCOc1ccccc1 | 40.9 (≈ 94.1 µM)
CCOC(=O)C1CCCN(C(=O)c2ccc(Cl)cc2)C1 (stereo not drawn) | > 44.4
CCN(CC)C(=O)c1cc2c(=O)n3cccc(C)c3nc2s1 | 43.4 (≈ 138 µM)
COc1ccc(CN(C)CC(=O)NC(C)c2ccccc2)cc1OC (stereo not drawn) | > 51.4
Cc1ccc(C(=O)NC2CCc3ccccc3C2=O)cc1 (stereo not drawn) | 5.8 (≈ 20.8 µM)
CC(C)c1ccc(NC2CCCN(C(=O)c3ccsc3)C2)cc1 (stereo not drawn) | > 49.3
Cc1cccc(C(=O)NCC(=O)N2CCOCC2)c1 | > 39.3
COc1ccc(CC(=O)OCC(=O)Nc2cc(Cl)ccc2C)cc1 | 7 (≈ 20.1 µM)
COC(=O)c1sccc1NC(=O)CSCCc1ccncc1 | 49.6 (≈ 147 µM)
Cc1onc(-c2ccccc2)c1-c1csc(COc2ccccc2)n1 | 2.2 (≈ 6.31 µM)
